Values of other authors, collected in patent publication US6423320B1, “Inhibitor of immunoglobulin E antibody production” (Tayca Corporation, priority 1997, dated 2002).
Where a name gives a salt, the structure may show the parent alone.

Tested on: IgE antibody production
Conditions: Bio Industry, Vol. 13, No. 12, pp. 42-50 (1996)

CCOCC(O)COc1ccc(NC(=O)CC[S+](C)C)cc1 (stereo not shown) [IPD, Suplatast Tosylate]
Inhibitory action on the production of IgE antibody: extremely weak inhibitory action
